Where two headings read alike, the source gives them in different places.

Assay [1] addresses T1, Cyclin Dependent Kinase 1/Cyclin A2 (CDK1-cycA2) (Homo sapiens, UniProt P06493).
T1 construct: purchased ProQinase 0134-0054-1
Nature of the assay: CDK1-cycA2 TR-FRET (Lance) enzyme assay. Format: biochemical. As to conditions: Table O, enzymatic assay. The procedure: (§1) Cyclin Dependent Kinase 1/Cyclin A2 (CDK1-cycA2), Cyclin Dependent Kinase 2/Cyclin E1 (CDK2-cycE1), Cyclin Dependent Kinase 4/Cyclin D3 (CDK4-cycD3) and Cyclin Dependent Kinase 6/Cyclin D3 (CDK6-cycD3) enzyme assays were carried out as described below.
(1) CDK1-cycA2 TR-FRET (Lance®)
(§2) An Echo acoustic dispenser is used to create dose responses of compound dissolved in DMSO into a 384-well microplate. A 5 μL volume of enzyme mix is added to the well, and pre-incubated with compound for 30 minutes. […] Buffer conditions are 50 mM HEPES, pH 7.5, 10 mM MgCl2, 2 mM TCEP, 0.05% BGG and 0.01% Brij 35. The reaction is quenched with 5 μL of EDTA in detection buffer (15 mM [EDTA final]). Finally, a 5 μL TR-FRET detection mix is added to the quenched reaction, which includes Europium labeled anti-phospho-4E-BP1. […] Signal is a ratio of the Acceptor and Donor fluorescence. Inhibition constants are calculated via the Morrison equation.

For assay [2], the target named is T2, Cyclin Dependent Kinase 2/Cyclin E1 (CDK2-cycE1) (Homo sapiens, UniProt P24941).
T2 construct: purchased ProQinase 0050-0055-1
In words: CDK2-cycE1 TR-FRET (LANCE) enzyme assay.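 On improvement in potency against CDK2 (Ki) over Comparator C: fold lower CDK2 Ki than comparator c (Ki 0.032 µM).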 It is filed as biochemical. Conditions: for Ki: enzymatic assay, read-out: CDK2 Ki; for FS CDK1/CDK2 / FS CDK4/CDK2: fold selectivity; for increased fold-selectivity CDK4/CDK2 over Comparator C: (+) sign after FS CDK4/CDK2. The procedure: as §1
(ii) CDK2-cycE1 TR-FRET (LANCE®)
as §2, with “anti-phospho-MBP.” for “anti-phospho-4E-BP1.”, “equation. Enzyme source of CDK2-cycE1 is ProQinase, catalog #: 0050-0055-1.” for “equation.”

Assay [3] has as its target T3, Cyclin Dependent Kinase 4/Cyclin D3 (CDK4-cycD3) (Homo sapiens, UniProt P11802).
T3 construct: purchased Carna Biosciences 04-105
Nature of the assay: CDK4-cycD3 TR-FRET (LANCE) enzyme assay. It is filed as biochemical. Conditions: Table O, enzymatic assay. The procedure:
as §1
(iii) CDK4-cycD3 TR-FRET (LANCE®)
as §2

Assay [4] concerns OVISE (JCRB1043, CCNE1-amplified). In words: OVISE EdU incorporation cell proliferation assay (CDK2-dependent). It is filed as cell-based. As to conditions: for IC50: cellular assay, read-out: CDK2 OVISE IC50; for FS SKOV-3/OVISE: fold selectivity; for increased fold-selectivity SKOV-3/OVISE over Comparator C: (+) sign after FS SKOV-3/OVISE; for improvement in CDK2 OVISE cell potency over Comparator C: in brackets after OVISE IC50, Comparator C 5.5 μM. The procedure:
(§3) (i) OVISE and SKOV-3 EdU Incorporation Cell Proliferation Assays
(§4) Ovarian cancer cell proliferation is measured by incorporation of EdU (5-ethynyl-2′-deoxyuridine) into newly synthesized DNA. CDK2-dependent proliferation is determined using OVISE (JCRB1043, CCNE1-amplified) while CDK4/6-dependent effect is determined with SKOV-3 (ATCC HTB-77) which is not CCNE1-amplified.
(§5) Cells are plated in 384-well plates in RPMI medium supplemented with 10% FBS. Compounds are added at desired concentrations with a final DMSO content of 0.5%, and cells incubated at 37° C./5% CO2 for 16 hours. EdU (Life Technologies) is added to a final concentration of 0.5 μM and incubation continued for 8 hours, followed by fixation with 4% paraformaldehyde. […] Images are acquired using Yokogawa CQ1 imaging cytometer with a 10×objective. […] The IC50 for inhibition of cell division is determined by fitting the fraction of EdU-positive cells as a function of compound dose using a 4-parameter logistic model.

The subject of assay [5] is SKOV-3 (ATCC HTB-77). In words: SKOV-3 EdU incorporation cell proliferation assay (CDK4/6-dependent). Format: cell-based. Conditions: Homo sapiens, cellular assay, read-out: CDK4/6 SKOV-3 IC50. The procedure:
as §3, §4, §5

[6] abbreviates: Table O, enzymatic CDK1 Ki over CDK2 Ki.
[7] abbreviates: Table O, enzymatic CDK4 Ki over CDK2 Ki.
[8] abbreviates: Table O, cellular SKOV-3 IC50 over OVISE IC50.
Setting [9] is: Table Q, in brackets after CDK2 Ki, Comparator C 0.032 μM.

T3 sequence (P11802 whole entry): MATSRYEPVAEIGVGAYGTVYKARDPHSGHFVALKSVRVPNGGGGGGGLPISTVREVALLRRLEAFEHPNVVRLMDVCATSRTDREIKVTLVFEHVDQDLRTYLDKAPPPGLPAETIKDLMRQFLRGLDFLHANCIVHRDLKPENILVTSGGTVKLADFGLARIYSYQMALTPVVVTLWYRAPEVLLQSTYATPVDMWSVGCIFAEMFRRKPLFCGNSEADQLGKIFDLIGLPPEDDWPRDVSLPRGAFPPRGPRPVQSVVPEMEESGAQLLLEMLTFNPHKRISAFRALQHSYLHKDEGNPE
T3 sequence (P30281 whole entry partner): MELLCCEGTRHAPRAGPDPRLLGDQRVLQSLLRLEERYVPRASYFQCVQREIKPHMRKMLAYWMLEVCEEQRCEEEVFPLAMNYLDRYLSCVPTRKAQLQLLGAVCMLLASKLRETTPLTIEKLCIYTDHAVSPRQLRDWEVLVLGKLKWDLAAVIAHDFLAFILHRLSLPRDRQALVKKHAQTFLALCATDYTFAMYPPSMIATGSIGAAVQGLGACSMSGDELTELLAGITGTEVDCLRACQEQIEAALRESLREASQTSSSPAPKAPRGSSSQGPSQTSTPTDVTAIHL
T1 sequence (P06493 whole entry): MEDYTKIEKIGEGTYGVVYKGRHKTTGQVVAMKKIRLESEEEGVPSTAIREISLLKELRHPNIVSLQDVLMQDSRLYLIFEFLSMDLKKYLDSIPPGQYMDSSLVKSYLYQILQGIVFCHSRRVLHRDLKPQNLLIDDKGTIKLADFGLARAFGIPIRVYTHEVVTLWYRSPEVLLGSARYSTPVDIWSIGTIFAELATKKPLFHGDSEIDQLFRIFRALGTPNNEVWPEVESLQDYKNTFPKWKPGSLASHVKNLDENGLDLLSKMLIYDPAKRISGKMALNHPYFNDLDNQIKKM
T1 sequence (P20248 whole entry partner): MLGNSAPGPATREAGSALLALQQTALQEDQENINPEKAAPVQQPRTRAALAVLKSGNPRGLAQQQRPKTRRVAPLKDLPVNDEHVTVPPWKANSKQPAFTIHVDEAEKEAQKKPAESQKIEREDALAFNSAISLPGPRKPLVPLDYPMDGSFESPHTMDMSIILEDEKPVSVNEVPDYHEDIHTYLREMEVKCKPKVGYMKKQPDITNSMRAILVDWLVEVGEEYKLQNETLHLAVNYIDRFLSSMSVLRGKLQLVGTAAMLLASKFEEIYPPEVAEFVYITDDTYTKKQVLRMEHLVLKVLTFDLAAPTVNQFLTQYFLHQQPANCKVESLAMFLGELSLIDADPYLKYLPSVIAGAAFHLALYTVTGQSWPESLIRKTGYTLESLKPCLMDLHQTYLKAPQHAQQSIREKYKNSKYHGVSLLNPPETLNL

On to `COc1ncc(Nc2cc([C@H]3CC[C@@H](OC(=O)NC(C)C)C3)[nH]n2)cn1` [Example 2FF, (1R,3S)-3-(3-((2-methoxypyrimidin-5-yl)amino)-1H-pyrazol-5-yl)cyclopentyl isopropylcarbamate], for which the Ki in assay [1] came to 320 nM; in assay [2] (Table O), 14 nM; in assay [3] it was 950 nM. Also, the “FS CDK1/CDK2” value in assay [2] (setting [6]) stood at 23. Moreover, in assay [2] (setting [7]), the “FS CDK4/CDK2” value was found to be 68. In addition, the IC50 in assay [4] (Table O) is 1200 nM; in assay [5] (SK-OV-3, Table O), > 20000 nM. In addition, in assay [4] (setting [8]), the “FS SKOV-3/OVISE” value is on record as >17.

Turning to `CNc1ncc(Nc2cc([C@H]3CC[C@@H](OC(=O)NC(C)C)C3)[nH]n2)cn1` [Example 2GG, (1R,3S)-3-(3-((2-(methylamino)pyrimidin-5-yl)amino)-1H-pyrazol-5-yl)cyclopentyl isopropylcarbamate], the Ki in assay [1] stood at 8800 nM; in assay [2] (Table O) it was 480 nM; in assay [3], 15000 nM. Moreover, the “FS CDK1/CDK2” value in assay [2] (setting [6]) was determined as 18. Also, the “FS CDK4/CDK2” value in assay [2] (setting [7]) is on record as 31. The IC50 in assay [4] (Table O) was > 20000 nM; in assay [5] (SK-OV-3, Table O) it was > 20000 nM. Moreover, in assay [4] (setting [8]), the “FS SKOV-3/OVISE” value is 1.

Turning to `COCCn1nc(Nc2cc([C@H]3CC[C@@H](OC(=O)NC(C)C)C3)[nH]n2)ccc1=O` [Example 2II, (1R,3S)-3-(3-((1-(2-methoxyethyl)-6-oxo-1,6-dihydropyridazin-3-y1)amino)-1H-pyrazol-5-y1)cyclopentyl isopropylcarbamate], the Ki amounted to 110 nM in assay [1], 9.6 nM in assay [2] (Table O) and 950 nM in assay [3]. Further, the “FS CDK1/CDK2” value in assay [2] (setting [6]) was determined as 11. For the same compound, the “FS CDK4/CDK2” value in assay [2] (setting [7]) turned out to be 99. Further, the IC50 in assay [4] (Table O) is 2600 nM; in assay [5] (SK-OV-3, Table O), > 20000 nM. For the same compound, the “FS SKOV-3/OVISE” value in assay [4] (setting [8]) is reported as >7.7.

In the case of `CC(C)NC(=O)O[C@@H]1CC[C@H](c2cc(Nc3ccc(-n4ccnc4)nc3)n[nH]2)C1` [Example 2J, (1R,3S)-3-(3-((6-(1H-imidazol-1-yl)pyridin-3-yl)amino)-1H-pyrazol-5-yl)cyclopentyl isopropylcarbamate], the Ki in assay [1] is 200 nM; in assay [2] (Table O), 10 nM; in assay [3] it was 230 nM. For the same compound, in assay [2] (setting [6]), the “FS CDK1/CDK2” value was found to be 20. For the same compound, the “FS CDK4/CDK2” value in assay [2] (setting [7]) was 23. In addition, the IC50 in assay [4] (Table O) turned out to be 440 nM; in assay [5] (SK-OV-3, Table O), 11000 nM. The “FS SKOV-3/OVISE” value in assay [4] (setting [8]) is on record as 25.

As for `COc1ccc(Nc2cc([C@H]3CC[C@@H](OC(=O)NC(C)C)C3)[nH]n2)nn1` [Example 2JJ, (1R,3S)-3-(3-((6-methoxypyridazin-3-yl)amino)-1H-pyrazol-5-yl)cyclopentyl isopropylcarbamate], the inhibition constant (Ki) in assay [1] was determined as 1200 nM; in assay [2] (Table O), 77 nM; in assay [3], 1200 nM. Moreover, the “FS CDK1/CDK2” value in assay [2] (setting [6]) was determined as 16. The “FS CDK4/CDK2” value in assay [2] (setting [7]) was determined as 16. Besides, the IC50 in assay [4] (Table O) came out at 4100 nM; in assay [5] (SK-OV-3, Table O), 3.2 nM. Besides, in assay [4] (setting [8]), the “FS SKOV-3/OVISE” value was <1.

For `CC(C)NC(=O)O[C@@H]1CC[C@H](c2cc(Nc3cncc(N(C)C)n3)n[nH]2)C1` [Example 2P, (1R,3S)-3-(3-((6-(dimethylamino)pyrazin-2-yl)amino)-1H-pyrazol-5-yl)cyclopentyl isopropylcarbamate], the Ki in assay [1] was determined as 33 nM; in assay [2] (Table O) it was 4.2 nM; in assay [2] (Table Q) it was 4.2 nM; in assay [3] it was 180 nM. Further, the “improvement in potency against CDK2 (Ki) over Comparator C” value (“improvement … (Ki) over Comparator C” for short) in assay [2] is 8 fold. The “FS CDK1/CDK2” value was 7.9 in assay [2] (setting [6]) and 7.9 in assay [2] (Table Q, enzymatic). Besides, the “FS CDK4/CDK2” value in assay [2] (setting [7]) is listed as 43; in assay [2] (Table Q, enzymatic), 43. Further, the “increased fold-selectivity CDK4/CDK2 over Comparator C” value (“increased fold-selectivity CDK4/CDK2” for short) in assay [2] (Table Q) is on record as “(+) (The (+) sign in Table Q signifies desirable increased fold-selectivity of the exemplary compounds over Comparator C)”. Further, the IC50 in assay [4] (Table O) was 370 nM; in assay [5] (SK-OV-3, Table O) it was 5300 nM; in assay [5] (SK-OV-3, Table Q) it was 5300 nM. The “FS SKOV-3/OVISE” value in assay [4] (setting [8]) is reported as 14; in assay [4] (Table Q, cellular) it was 14. Moreover, the “increased fold-selectivity SKOV-3/OVISE over Comparator C” value in assay [4] (Table Q) is “(+) (The (+) sign in Table Q signifies desirable increased fold-selectivity of the exemplary compounds over Comparator C)”. In addition, the “improvement in CDK2 OVISE cell potency over Comparator C” value in assay [4] (Table Q) is 14.9 fold.

As for `CC(C)NC(=O)O[C@@H]1CC[C@H](c2cc(Nc3ncnc(N(C)C)n3)n[nH]2)C1` [Example 2Q, (1R,3S)-3-(3-((4-(dimethylamino)-1,3,5-triazin-2-yl)amino)-1H-pyrazol-5-yl)cyclopentyl isopropylcarbamate], the Ki in assay [1] amounted to 670 nM; in assay [2] (Table O) it was 41 nM; in assay [2] (Table Q), 41 nM; in assay [3], 1500 nM. For the same compound, the “FS CDK1/CDK2” value in assay [2] (setting [6]) was 16; in assay [2] (Table Q, enzymatic), 16. In addition, the “FS CDK4/CDK2” value in assay [2] (setting [7]) is given as 37; in assay [2] (Table Q, enzymatic), 37. Further, in assay [2] (Table Q), the “increased fold-selectivity CDK4/CDK2” value was “(+) (The (+) sign in Table Q signifies desirable increased fold-selectivity of the exemplary compounds over Comparator C)”. Moreover, the “improvement … (Ki) over Comparator C” value in assay [2] (setting [9]) came to 0.8 fold. The IC50 was 2400 nM in assay [4] (Table O); > 20000 nM in assay [5] (SK-OV-3, Table O); > 20000 nM in assay [5] (SK-OV-3, Table Q). For the same compound, the “FS SKOV-3/OVISE” value in assay [4] (setting [8]) is reported as >8.3; in assay [4] (Table Q, cellular), > 8.3. Moreover, the “increased fold-selectivity SKOV-3/OVISE over Comparator C” value in assay [4] (Table Q) is on record as “(+) (The (+) sign in Table Q signifies desirable increased fold-selectivity of the exemplary compounds over Comparator C)”. In addition, the “improvement in CDK2 OVISE cell potency over Comparator C” value in assay [4] (Table Q) is listed as 2.3 fold.

As to `Cc1cc(=O)n(C)cc1Nc1cc([C@H]2CC[C@@H](OC(=O)NC(C)C)C2)[nH]n1` [Example 2S, (1R,3S)-3-(3-((1,4-dimethyl-6-oxo-1,6-dihydropyridin-3-yl)amino)-1H-pyrazol-5-yl)cyclopentyl isopropylcarbamate], the Ki stood at 7400 nM in assay [1], 890 nM in assay [2] (Table O), 890 nM in assay [2] (Table Q) and 12000 nM in assay [3]. For the same compound, the “FS CDK1/CDK2” value is reported as 8.3 in assay [2] (setting [6]) and 8.3 in assay [2] (Table Q, enzymatic). In addition, the “FS CDK4/CDK2” value is 13 in assay [2] (setting [7]) and 13 in assay [2] (Table Q, enzymatic). In assay [2] (Table Q), the “increased fold-selectivity CDK4/CDK2” value is recorded as “(+) (The (+) sign in Table Q signifies desirable increased fold-selectivity of the exemplary compounds over Comparator C)”. In addition, in assay [2] (setting [9]), the “improvement … (Ki) over Comparator C” value stood at 0.4 fold. Also, the IC50 in assay [4] (Table O) was > 20000 nM; in assay [4] (Table Q) it was > 20000 nM; in assay [5] (SK-OV-3, Table O) it was > 20000 nM; in assay [5] (SK-OV-3, Table Q), > 20000 nM. The “FS SKOV-3/OVISE” value in assay [4] (setting [8]) is on record as 1.0; in assay [4] (Table Q, cellular), 1.0. The “improvement in CDK2 OVISE cell potency over Comparator C” value in assay [4] (Table Q) is reported as 0.28 fold.

For the origin of these results see patent US20240425478A1, “CYCLOPENTYLPYRAZOLE CDK2 INHIBITORS” (Genentech, Inc., priority 2021, published 2024).
